Bounds are passed on as bounds.

The assay has as its target T1, human androgen receptor (Homo sapiens, UniProt P10275, T878A).
T1 construct: endogenously expressed human androgen receptor using the LnCap prostate cancer cell line; endogenous in cells; host or cells: LNCaP prostate cancer cell line (whole cells)
T1 sequence (P10275 1-920 T878A): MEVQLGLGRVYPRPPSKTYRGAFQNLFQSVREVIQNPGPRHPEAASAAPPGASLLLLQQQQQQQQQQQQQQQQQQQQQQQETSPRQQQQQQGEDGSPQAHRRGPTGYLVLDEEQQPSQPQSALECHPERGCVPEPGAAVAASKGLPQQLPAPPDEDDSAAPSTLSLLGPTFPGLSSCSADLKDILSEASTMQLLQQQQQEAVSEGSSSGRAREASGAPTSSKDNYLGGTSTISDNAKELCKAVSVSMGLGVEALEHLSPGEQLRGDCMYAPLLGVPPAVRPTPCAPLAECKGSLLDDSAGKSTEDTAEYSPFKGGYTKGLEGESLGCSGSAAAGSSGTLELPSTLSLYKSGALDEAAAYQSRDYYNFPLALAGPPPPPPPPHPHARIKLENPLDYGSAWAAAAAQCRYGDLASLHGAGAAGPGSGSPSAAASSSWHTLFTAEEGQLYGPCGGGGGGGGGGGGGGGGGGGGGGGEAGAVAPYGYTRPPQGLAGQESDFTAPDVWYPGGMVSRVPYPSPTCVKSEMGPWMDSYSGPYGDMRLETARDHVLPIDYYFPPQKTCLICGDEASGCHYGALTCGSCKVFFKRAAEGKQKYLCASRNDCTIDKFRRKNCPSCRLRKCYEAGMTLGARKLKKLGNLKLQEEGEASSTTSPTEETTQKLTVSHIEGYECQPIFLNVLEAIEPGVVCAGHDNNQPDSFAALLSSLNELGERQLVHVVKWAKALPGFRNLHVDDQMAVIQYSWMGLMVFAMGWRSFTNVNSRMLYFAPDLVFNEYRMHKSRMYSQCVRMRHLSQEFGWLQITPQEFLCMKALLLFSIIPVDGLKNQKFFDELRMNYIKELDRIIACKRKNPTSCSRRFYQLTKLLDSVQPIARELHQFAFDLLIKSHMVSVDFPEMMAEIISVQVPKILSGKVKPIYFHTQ
Put plainly: Human Androgen Receptor Binding (radioligand binding, LnCap prostate cancer cell line). As to conditions: LnCap cells, displacement of [^3H]-methyltrienolone, 2 hours at 37° C.; read-out: AR LNCaP. A digest of the protocol:
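Whole-cell displacement of [3H]-methyltrienolone from endogenous AR (T878A) in LnCap cells, in RPMI with 0.1% BSA and triamcinolone acetonide. Compounds 10 μM to 0.1 nM in 1:10 steps, 2 h at 37 °C; cells washed, SDS-lysed, bound radioactivity by scintillation counting for IC50.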
Turning to `COC(=O)C1=C(C2CC2)NC(C)=C(C(C)=O)C1c1csc2c(Br)cccc12` (stereo not shown) [Example J26, Methyl 5-acetyl-4-(7-bromobenzo[b]thiophen-3-yl)-2-cyclopropyl-6-methyl-1,4-dihydropyridine-3-carboxylate], the IC50 is less than 100 nM.
Next, `CC(=O)C1=C(C)NC(C)=C(C(=O)OC2CCCCC2)C1c1csc2ncccc12` (stereo not shown) [Example C36, Cyclohexyl 5-acetyl-2,6-dimethyl-4-(thieno[2,3-b]pyridin-3-yl)-1,4-dihydropyridine-3-carboxylate]: 100 to 1000 nM.
Turning to `CC1=C(C(=O)OC2CC2)C(c2csc3c(C#N)cccc23)C(C(=O)OCC2CC2)=C(N)N1` (stereo not shown) [Example D37, 5-Cyclopropyl 3-(cyclopropylmethyl) 2-amino-4-(7-cyanobenzo[b]thiophen-3-yl)-6-methyl-1,4-dihydropyridine-3,5-dicarboxylate], the IC50 is 100 to 1000 nM.
For `CC(=O)C1=C(C)NC(C)=C(C(=O)OCc2ccc(Br)cc2)C1c1csc2ncccc12` (stereo not shown) [Example C65, 4-bromobenzyl 5-acetyl-2,6-dimethyl-4-(thieno[2,3-b]pyridin-3-yl)-1,4-dihydropyridine-3-carboxylate] the value was no less than 1000 nM; for `CC(=O)C1=C(C)NC(C)=C(C(=O)OCC2CCOCC2)C1c1csc2ccccc12` (stereo not shown) [Example C2, (Tetrahydro-2H-pyran-4-yl)methyl 5-acetyl-4-(benzo[b]thiophen-3-yl)-2,6-dimethyl-1,4-dihydropyridine-3-carboxylate], no less than 1000 nM; for `CC(=O)C1=C(C)NC(C)=C(C(=O)OCC2CCOCC2)C1c1csc2ccc(F)cc12` (stereo not shown) [Example C44, (Tetrahydro-2H-pyran-4-yl)methyl 5-acetyl-4-(5-fluorobenzo[b]thiophen-3-yl)-2,6-dimethyl-1,4-dihydropyridine-3-carboxylate], no less than 1000 nM.
In the case of `COC(=O)C1=C(C)NC(N)=C(C(=O)OC2CCCC2)C1c1csc2c(C#N)cccc12` (stereo not shown) [Example D27, 3-Cyclopentyl 5-methyl 2-amino-4-(7-cyanobenzo[b]thiophen-3-yl)-6-methyl-1,4-dihydropyridine-3,5-dicarboxylate], the IC50 fell in the range of 100 to 1000 nM.
Next, `COC(=O)C1=C(C)NC(N)=C(C(=O)OC(C)C)C1c1csc2c(C#N)cccc12` (stereo not shown) [Example D41, 3-Isopropyl 5-methyl 2-amino-4-(7-cyanobenzo[b]thiophen-3-yl)-6-methyl-1,4-dihydropyridine-3,5-dicarboxylate]: 100 to 1000 nM; `C#CCOC(=O)C1=C(C)NC(N)=C(C(=O)OCC2CC2)C1c1csc2c(C#N)cccc12` (stereo not shown) [Example D47, 3-(Cyclopropylmethyl) 5-(prop-2-yn-1-yl) 2-amino-4-(7-cyanobenzo[b]thiophen-3-yl)-6-methyl-1,4-dihydropyridine-3,5-dicarboxylate]: 100 to 1000 nM; `CC(=O)C1=C(C)NC(C)=C(C(=O)OCc2cccc(C#N)c2)C1c1csc2ncccc12` (stereo not shown) [Example C72, 3-Cyanobenzyl 5-acetyl-2,6-dimethyl-4-(thieno[2,3-b]pyridin-3-yl)-1,4-dihydropyridine-3-carboxylate]: no less than 1000 nM.
Next, `COC(=O)C1=C(C2CC2)NC(C)=C(C(C)=O)C1c1csc2ncccc12` (stereo not shown) [Example J23, Methyl 5-acetyl-2-cyclopropyl-6-methyl-4-(thieno[2,3-b]pyridin-3-yl)-1,4-dihydropyridine-3-carboxylate]: less than 100 nM; `CC(=O)C1=C(C)NC(C)=C(C(=O)OCc2cccc(-c3cccnc3)c2)C1c1csc2ncccc12` (stereo not shown) [Example L4, 3-(pyridin-3-yl)benzyl 5-acetyl-2,6-dimethyl-4-(thieno[2,3-b]pyridin-3-yl)-1,4-dihydropyridine-3-carboxylate]: less than 100 nM; `CC(=O)C1=C(C)NC(C2CC2)=C(C(=O)OCc2ccc(F)cc2)C1c1csc2ncccc12` (stereo not shown) [Example J42, 4-fluorobenzyl 5-acetyl-2-cyclopropyl-6-methyl-4-(thieno[2,3-b]pyridin-3-yl)-1,4-dihydropyridine-3-carboxylate]: 100 to 1000 nM.
`CC1=C(C(=O)C2CC2)C(c2csc3c(C#N)cccc23)C(C(=O)OCC2CC2)=C(N)N1` (stereo not shown) [Example D31, Cyclopropylmethyl 2-amino-4-(7-cyanobenzo[b]thiophen-3-yl)-5-(cyclopropanecarbonyl)-6-methyl-1,4-dihydropyridine-3-carboxylate]: the IC50 lay within 100 to 1000 nM.
In the case of `COC(=O)C1=C(CO)NC(C2CC2)=C(C(=O)OC)C1c1csc2c(C#N)cccc12` (stereo not shown) [Example C118, Dimethyl 4-(7-cyanobenzo[b]thiophen-3-yl)-2-cyclopropyl-6-(hydroxymethyl)-1,4-dihydropyridine-3,5-dicarboxylate], the IC50 is less than 100 nM.
Consider `CC(=O)C1=C(C)NC(C)=C(C(=O)OCc2ccccc2)C1c1csc2ccc(Cl)cc12` (stereo not shown) [Example C42, Benzyl 5-acetyl-4-(5-chlorobenzo[b]thiophen-3-yl)-2,6-dimethyl-1,4-dihydropyridine-3-carboxylate], for which the IC50 is no less than 1000 nM.

The record behind these values is US11453660B2, “Androgen receptor and glucocorticoid receptor modulators” (ONCOSTELLAE, S.L., priority 2017, dated 2022).
